{"source": "paper PMC8909834", "about": "“An Orally Bioavailable and Highly Efficacious Inhibitor of CDK9/FLT3 for the Treatment of Acute Myeloid Leukemia” (Cancers, 2022)", "assay_in_all_cases": "Kinase Hotspot radiolabel assay", "assay_type_in_all_cases": "biochemical", "conditions_in_all_cases": "read-out: % Residual Activity", "key": {"STK38/NDR1": {"biological_target": "T1, STK38/NDR1 (Homo sapiens, UniProt Q15208)", "T1 construct": "purchased Reaction Biology Corporation (Kinase HotSpot)", "T1 sequence (Q15208 whole entry)": "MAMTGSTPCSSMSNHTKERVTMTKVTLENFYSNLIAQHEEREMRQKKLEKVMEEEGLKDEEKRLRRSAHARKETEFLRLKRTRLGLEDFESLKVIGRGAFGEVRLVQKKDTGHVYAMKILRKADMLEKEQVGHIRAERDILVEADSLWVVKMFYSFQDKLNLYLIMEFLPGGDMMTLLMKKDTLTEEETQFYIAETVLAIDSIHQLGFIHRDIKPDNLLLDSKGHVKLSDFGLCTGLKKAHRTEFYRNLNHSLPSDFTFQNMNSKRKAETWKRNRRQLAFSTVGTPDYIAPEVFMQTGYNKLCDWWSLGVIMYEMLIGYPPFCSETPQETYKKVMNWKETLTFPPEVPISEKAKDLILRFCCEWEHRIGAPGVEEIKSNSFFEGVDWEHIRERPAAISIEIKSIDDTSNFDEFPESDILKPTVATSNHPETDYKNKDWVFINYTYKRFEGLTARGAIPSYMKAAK", "in_short": "(§1)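 Step one: screen at 1 µM across 369 kinases (Hotspot, radiolabel detection). Step two: Ki determination for kinases with >90% inhibition.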"}, "CLK3": {"biological_target": "T2, CLK3 (Homo sapiens, UniProt P49761)", "T2 construct": "purchased Reaction Biology Corporation (Kinase HotSpot)", "T2 sequence (P49761 whole entry)": "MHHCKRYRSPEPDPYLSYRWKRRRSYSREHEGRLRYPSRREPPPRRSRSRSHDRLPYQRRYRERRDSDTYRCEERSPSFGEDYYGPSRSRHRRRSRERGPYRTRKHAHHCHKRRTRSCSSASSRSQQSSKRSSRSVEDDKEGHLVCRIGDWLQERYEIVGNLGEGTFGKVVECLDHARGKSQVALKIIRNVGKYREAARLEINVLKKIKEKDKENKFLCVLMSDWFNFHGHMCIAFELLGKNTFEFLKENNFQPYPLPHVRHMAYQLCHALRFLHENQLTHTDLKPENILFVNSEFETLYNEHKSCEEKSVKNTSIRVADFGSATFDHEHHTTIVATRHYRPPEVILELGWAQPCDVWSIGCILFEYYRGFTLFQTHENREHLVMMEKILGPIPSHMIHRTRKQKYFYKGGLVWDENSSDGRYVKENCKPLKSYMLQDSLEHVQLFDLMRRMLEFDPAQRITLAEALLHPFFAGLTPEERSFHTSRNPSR", "in_short": "as §1"}, "CDK4/cyclin D3": {"biological_target": "T3, CDK4/cyclin D3 (Homo sapiens, UniProt P11802)", "T3 construct": "purchased Reaction Biology Corporation (Kinase HotSpot)", "T3 sequence (P11802 whole entry)": "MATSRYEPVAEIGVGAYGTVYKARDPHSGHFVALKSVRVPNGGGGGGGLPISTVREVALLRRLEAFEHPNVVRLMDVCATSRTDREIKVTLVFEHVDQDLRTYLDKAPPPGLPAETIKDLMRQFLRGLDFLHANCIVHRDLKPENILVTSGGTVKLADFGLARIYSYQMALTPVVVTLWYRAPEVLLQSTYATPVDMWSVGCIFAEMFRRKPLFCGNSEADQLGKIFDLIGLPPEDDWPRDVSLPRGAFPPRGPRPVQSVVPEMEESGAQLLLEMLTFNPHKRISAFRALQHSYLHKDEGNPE", "T3 sequence (P30281 whole entry partner)": "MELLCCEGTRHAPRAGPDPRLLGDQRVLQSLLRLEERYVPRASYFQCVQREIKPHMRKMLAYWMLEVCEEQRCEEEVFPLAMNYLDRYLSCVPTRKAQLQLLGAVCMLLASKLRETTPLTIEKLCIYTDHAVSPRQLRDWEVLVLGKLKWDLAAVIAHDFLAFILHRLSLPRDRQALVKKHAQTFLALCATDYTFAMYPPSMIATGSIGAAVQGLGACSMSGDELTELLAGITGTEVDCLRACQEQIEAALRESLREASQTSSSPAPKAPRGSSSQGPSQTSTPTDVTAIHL", "in_short": "as §1"}, "MLK3/MAP3K11": {"biological_target": "T4, MLK3/MAP3K11 (Homo sapiens, UniProt Q16584)", "T4 construct": "purchased Reaction Biology Corporation (Kinase HotSpot)", "in_short": "as §1"}, "NEK3": {"biological_target": "T5, NEK3 (Homo sapiens, UniProt P51956)", "T5 construct": "purchased Reaction Biology Corporation (Kinase HotSpot)", "T5 sequence (P51956 whole entry)": "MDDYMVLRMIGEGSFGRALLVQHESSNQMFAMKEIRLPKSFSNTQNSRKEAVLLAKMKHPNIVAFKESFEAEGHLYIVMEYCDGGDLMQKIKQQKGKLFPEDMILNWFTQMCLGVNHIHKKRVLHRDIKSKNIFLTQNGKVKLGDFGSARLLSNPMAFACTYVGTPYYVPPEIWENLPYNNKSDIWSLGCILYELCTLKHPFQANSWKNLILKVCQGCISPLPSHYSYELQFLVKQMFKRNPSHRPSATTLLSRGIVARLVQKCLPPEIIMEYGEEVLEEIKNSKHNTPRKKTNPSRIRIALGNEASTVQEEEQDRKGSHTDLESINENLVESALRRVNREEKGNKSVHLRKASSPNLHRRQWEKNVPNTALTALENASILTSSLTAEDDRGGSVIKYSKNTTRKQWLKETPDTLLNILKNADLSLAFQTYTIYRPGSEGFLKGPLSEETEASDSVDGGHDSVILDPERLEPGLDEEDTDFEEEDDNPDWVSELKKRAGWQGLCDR", "in_short": "as §1"}, "STK32C/YANK3": {"biological_target": "T6, STK32C/YANK3 (Homo sapiens, UniProt Q86UX6)", "T6 construct": "purchased Reaction Biology Corporation (Kinase HotSpot)", "T6 sequence (Q86UX6 whole entry)": "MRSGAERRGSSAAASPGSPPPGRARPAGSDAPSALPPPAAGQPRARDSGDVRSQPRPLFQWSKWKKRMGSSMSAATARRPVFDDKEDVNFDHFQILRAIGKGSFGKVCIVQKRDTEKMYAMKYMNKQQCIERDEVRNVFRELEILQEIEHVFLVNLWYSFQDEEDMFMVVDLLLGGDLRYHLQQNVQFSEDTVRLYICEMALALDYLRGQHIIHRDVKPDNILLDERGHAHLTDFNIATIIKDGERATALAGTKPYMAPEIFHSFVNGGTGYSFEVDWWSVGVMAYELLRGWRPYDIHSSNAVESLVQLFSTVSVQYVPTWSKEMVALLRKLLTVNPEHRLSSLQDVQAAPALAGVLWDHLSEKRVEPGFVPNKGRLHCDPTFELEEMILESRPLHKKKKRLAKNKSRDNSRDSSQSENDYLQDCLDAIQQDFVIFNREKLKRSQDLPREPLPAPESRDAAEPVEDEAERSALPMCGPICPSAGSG", "in_short": "as §1"}, "NEK8": {"biological_target": "T7, NEK8 (Homo sapiens, UniProt Q86SG6)", "T7 construct": "purchased Reaction Biology Corporation (Kinase HotSpot)", "in_short": "as §1"}, "SGK3/SGKL": {"biological_target": "T8, SGK3/SGKL (Homo sapiens, UniProt Q96BR1)", "T8 construct": "purchased Reaction Biology Corporation (Kinase HotSpot)", "in_short": "as §1"}, "DYRK3": {"biological_target": "T9, DYRK3 (Homo sapiens, UniProt O43781)", "T9 construct": "purchased Reaction Biology Corporation (Kinase HotSpot)", "in_short": "as §1"}, "PLK3": {"biological_target": "T10, PLK3 (Homo sapiens, UniProt Q9H4B4)", "T10 construct": "purchased Reaction Biology Corporation (Kinase HotSpot)", "in_short": "as §1"}, "FGFR2": {"biological_target": "T11, FGFR2 (Homo sapiens, UniProt P21802)", "T11 construct": "purchased Reaction Biology Corporation (Kinase HotSpot)", "in_short": "as §1"}, "ULK1": {"biological_target": "T12, ULK1 (Homo sapiens, UniProt O75385)", "T12 construct": "purchased Reaction Biology Corporation (Kinase HotSpot)", "in_short": "as §1"}, "LATS1": {"biological_target": "T13, LATS1 (Homo sapiens, UniProt O95835)", "T13 construct": "purchased Reaction Biology Corporation (Kinase HotSpot)", "in_short": "as §1"}, "BTK": {"biological_target": "T14, BTK (Homo sapiens, UniProt Q06187)", "T14 construct": "purchased Reaction Biology Corporation (Kinase HotSpot)", "in_short": "as §1"}, "PEAK1": {"biological_target": "T15, PEAK1 (Homo sapiens, UniProt Q9H792)", "T15 construct": "purchased Reaction Biology Corporation (Kinase HotSpot)", "in_short": "as §1"}, "PLK2": {"biological_target": "T16, PLK2 (Homo sapiens, UniProt Q9NYY3)", "T16 construct": "purchased Reaction Biology Corporation (Kinase HotSpot)", "in_short": "as §1"}, "CAMK1b": {"biological_target": "T17, CAMK1b (Homo sapiens, UniProt Q6P2M8)", "T17 construct": "purchased Reaction Biology Corporation (Kinase HotSpot)", "T17 sequence (Q6P2M8 whole entry)": "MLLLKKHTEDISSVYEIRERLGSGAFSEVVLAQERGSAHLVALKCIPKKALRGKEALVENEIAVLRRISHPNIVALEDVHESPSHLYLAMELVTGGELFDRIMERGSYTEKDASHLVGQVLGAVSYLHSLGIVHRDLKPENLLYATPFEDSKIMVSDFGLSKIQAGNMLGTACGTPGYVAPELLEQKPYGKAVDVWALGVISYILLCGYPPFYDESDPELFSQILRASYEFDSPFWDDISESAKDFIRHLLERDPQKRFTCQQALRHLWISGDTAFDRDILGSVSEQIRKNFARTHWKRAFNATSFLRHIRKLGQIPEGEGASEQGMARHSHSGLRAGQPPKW", "in_short": "as §1"}, "MAK": {"biological_target": "T18, MAK (Homo sapiens, UniProt P20794)", "T18 construct": "purchased Reaction Biology Corporation (Kinase HotSpot)", "T18 sequence (P20794 whole entry)": "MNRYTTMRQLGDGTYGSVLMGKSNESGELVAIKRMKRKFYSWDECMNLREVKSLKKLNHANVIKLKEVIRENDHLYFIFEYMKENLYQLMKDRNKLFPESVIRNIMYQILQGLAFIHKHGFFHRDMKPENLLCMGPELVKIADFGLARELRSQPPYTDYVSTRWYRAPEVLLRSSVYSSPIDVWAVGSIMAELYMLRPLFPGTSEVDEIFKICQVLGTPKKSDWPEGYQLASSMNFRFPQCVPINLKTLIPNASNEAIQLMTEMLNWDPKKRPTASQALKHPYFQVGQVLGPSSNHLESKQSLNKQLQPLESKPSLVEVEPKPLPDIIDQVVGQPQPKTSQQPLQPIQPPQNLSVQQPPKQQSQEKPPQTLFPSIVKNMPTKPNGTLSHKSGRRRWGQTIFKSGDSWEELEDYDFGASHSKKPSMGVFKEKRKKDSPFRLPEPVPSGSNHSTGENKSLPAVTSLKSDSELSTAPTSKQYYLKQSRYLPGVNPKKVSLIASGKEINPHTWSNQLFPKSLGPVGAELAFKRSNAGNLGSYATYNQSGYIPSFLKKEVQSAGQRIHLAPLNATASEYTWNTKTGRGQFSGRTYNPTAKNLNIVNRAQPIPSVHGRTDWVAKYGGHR", "in_short": "as §1"}, "MEKK1": {"biological_target": "T19, MEKK1 (Homo sapiens, UniProt Q13233)", "T19 construct": "purchased Reaction Biology Corporation (Kinase HotSpot)", "in_short": "as §1"}, "BRSK2": {"biological_target": "T20, BRSK2 (Homo sapiens, UniProt Q8IWQ3)", "T20 construct": "purchased Reaction Biology Corporation (Kinase HotSpot)", "in_short": "as §1"}, "RAF1": {"biological_target": "T21, RAF1 (Homo sapiens, UniProt P04049)", "T21 construct": "purchased Reaction Biology Corporation (Kinase HotSpot)", "T21 sequence (P04049 whole entry)": "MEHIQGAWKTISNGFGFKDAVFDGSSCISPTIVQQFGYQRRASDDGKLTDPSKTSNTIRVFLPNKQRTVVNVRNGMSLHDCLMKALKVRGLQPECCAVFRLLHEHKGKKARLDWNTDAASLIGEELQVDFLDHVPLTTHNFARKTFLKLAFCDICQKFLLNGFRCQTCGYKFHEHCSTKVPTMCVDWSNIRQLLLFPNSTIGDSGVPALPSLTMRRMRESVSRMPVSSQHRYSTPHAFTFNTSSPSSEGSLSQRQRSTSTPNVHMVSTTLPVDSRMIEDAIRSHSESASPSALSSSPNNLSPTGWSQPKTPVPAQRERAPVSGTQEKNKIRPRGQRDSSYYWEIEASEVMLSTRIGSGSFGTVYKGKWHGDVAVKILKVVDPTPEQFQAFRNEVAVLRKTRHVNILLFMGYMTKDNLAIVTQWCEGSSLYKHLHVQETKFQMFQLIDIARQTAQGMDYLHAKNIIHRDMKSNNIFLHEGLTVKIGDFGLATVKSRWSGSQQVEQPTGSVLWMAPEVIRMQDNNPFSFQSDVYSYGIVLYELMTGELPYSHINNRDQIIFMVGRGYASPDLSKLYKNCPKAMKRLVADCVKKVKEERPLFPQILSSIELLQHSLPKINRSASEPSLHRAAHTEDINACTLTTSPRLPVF", "in_short": "as §1"}, "CLK2": {"biological_target": "T22, CLK2 (Homo sapiens, UniProt P49760)", "T22 construct": "purchased Reaction Biology Corporation (Kinase HotSpot)", "in_short": "as §1"}, "YSK4/MAP3K19": {"biological_target": "T23, YSK4/MAP3K19 (Homo sapiens, UniProt Q56UN5)", "T23 construct": "purchased Reaction Biology Corporation (Kinase HotSpot)", "in_short": "as §1"}, "MYLK3": {"biological_target": "T24, MYLK3 (Homo sapiens, UniProt Q32MK0)", "T24 construct": "purchased Reaction Biology Corporation (Kinase HotSpot)", "T24 sequence (Q32MK0 whole entry)": "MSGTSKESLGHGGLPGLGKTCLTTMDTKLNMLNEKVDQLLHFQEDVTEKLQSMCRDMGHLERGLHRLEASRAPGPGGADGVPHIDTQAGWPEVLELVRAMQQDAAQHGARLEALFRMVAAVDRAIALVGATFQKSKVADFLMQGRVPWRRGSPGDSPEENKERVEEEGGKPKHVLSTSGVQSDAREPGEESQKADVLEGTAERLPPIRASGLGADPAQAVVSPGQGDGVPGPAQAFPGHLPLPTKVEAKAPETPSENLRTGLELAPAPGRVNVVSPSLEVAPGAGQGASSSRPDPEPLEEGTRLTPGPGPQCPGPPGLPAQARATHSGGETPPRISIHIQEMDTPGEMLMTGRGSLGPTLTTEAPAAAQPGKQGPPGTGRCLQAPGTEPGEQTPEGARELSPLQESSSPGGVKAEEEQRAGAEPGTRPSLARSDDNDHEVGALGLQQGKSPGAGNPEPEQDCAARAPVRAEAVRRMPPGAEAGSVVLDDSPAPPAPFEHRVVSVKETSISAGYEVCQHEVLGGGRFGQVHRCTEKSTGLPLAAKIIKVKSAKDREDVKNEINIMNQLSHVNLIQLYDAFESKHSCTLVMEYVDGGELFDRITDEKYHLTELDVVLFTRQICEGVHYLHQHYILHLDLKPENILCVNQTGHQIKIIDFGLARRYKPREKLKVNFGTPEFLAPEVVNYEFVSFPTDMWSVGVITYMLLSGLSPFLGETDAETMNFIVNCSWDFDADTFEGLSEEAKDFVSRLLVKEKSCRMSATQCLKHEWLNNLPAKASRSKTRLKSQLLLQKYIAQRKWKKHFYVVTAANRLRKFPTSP", "in_short": "as §1"}, "NEK7": {"biological_target": "T25, NEK7 (Homo sapiens, UniProt Q8TDX7)", "T25 construct": "purchased Reaction Biology Corporation (Kinase HotSpot)", "in_short": "as §1"}, "HIPK3": {"biological_target": "T26, HIPK3 (Homo sapiens, UniProt Q9H422)", "T26 construct": "purchased Reaction Biology Corporation (Kinase HotSpot)", "in_short": "as §1"}, "CDK2/cyclin O": {"biological_target": "T27, CDK2/cyclin O (Homo sapiens, UniProt P24941)", "T27 construct": "purchased Reaction Biology Corporation (Kinase HotSpot)", "in_short": "as §1"}, "IKKb/IKBKB": {"biological_target": "T28, IKKb/IKBKB (Homo sapiens, UniProt O14920)", "T28 construct": "purchased Reaction Biology Corporation (Kinase HotSpot)", "in_short": "as §1"}, "PKAcb": {"biological_target": "T29, PKAcb (Homo sapiens, UniProt P22694)", "T29 construct": "purchased Reaction Biology Corporation (Kinase HotSpot)", "in_short": "as §1"}, "JAK1": {"biological_target": "T30, JAK1 (Homo sapiens, UniProt P23458)", "T30 construct": "purchased Reaction Biology Corporation (Kinase HotSpot)", "in_short": "as §1"}}, "data": [{"smiles": "Cc1cnc(N[C@H]2CC[C@H](N)CC2)nc1-c1cnc2ccc(-c3ccccc3)cn12", "note": "[CDDD11-8]", "values": [{"measurement": "remaining activity at 1 µM", "setting": "STK38/NDR1", "result": 93.3, "unit": "%"}, {"measurement": "remaining activity at 1 µM", "setting": "CLK3", "result": 85.9, "unit": "%"}, {"measurement": "remaining activity at 1 µM", "setting": "CDK4/cyclin D3", "result": 79.7, "unit": "%"}, {"measurement": "remaining activity at 1 µM", "setting": "MLK3/MAP3K11", "result": 45.1, "unit": "%"}, {"measurement": "remaining activity at 1 µM", "setting": "NEK3", "result": 92.8, "unit": "%"}, {"measurement": "remaining activity at 1 µM", "setting": "STK32C/YANK3", "result": 91.1, "unit": "%"}, {"measurement": "remaining activity at 1 µM", "setting": "NEK8", "result": 72.8, "unit": "%"}, {"measurement": "remaining activity at 1 µM", "setting": "SGK3/SGKL", "result": 115, "unit": "%"}, {"measurement": "remaining activity at 1 µM", "setting": "DYRK3", "result": 23.2, "unit": "%"}, {"measurement": "remaining activity at 1 µM", "setting": "PLK3", "result": 109, "unit": "%"}, {"measurement": "remaining activity at 1 µM", "setting": "FGFR2", "result": 72.5, "unit": "%"}, {"measurement": "remaining activity at 1 µM", "setting": "ULK1", "result": 108, "unit": "%"}, {"measurement": "remaining activity at 1 µM", "setting": "LATS1", "result": 57.4, "unit": "%"}, {"measurement": "remaining activity at 1 µM", "setting": "BTK", "result": 87, "unit": "%"}, {"measurement": "remaining activity at 1 µM", "setting": "PEAK1", "result": 57.3, "unit": "%"}, {"measurement": "remaining activity at 1 µM", "setting": "PLK2", "result": 97.5, "unit": "%"}, {"measurement": "remaining activity at 1 µM", "setting": "CAMK1b", "result": 96.1, "unit": "%"}, {"measurement": "remaining activity at 1 µM", "setting": "MAK", "result": 67.6, "unit": "%"}, {"measurement": "remaining activity at 1 µM", "setting": "MEKK1", "result": 103, "unit": "%"}, {"measurement": "remaining activity at 1 µM", "setting": "BRSK2", "result": 96.5, "unit": "%"}, {"measurement": "remaining activity at 1 µM", "setting": "RAF1", "result": 98.1, "unit": "%"}, {"measurement": "remaining activity at 1 µM", "setting": "CLK2", "result": 47, "unit": "%"}, {"measurement": "remaining activity at 1 µM", "setting": "YSK4/MAP3K19", "result": 63.5, "unit": "%"}, {"measurement": "remaining activity at 1 µM", "setting": "MYLK3", "result": 99.7, "unit": "%"}, {"measurement": "remaining activity at 1 µM", "setting": "NEK7", "result": 102, "unit": "%"}, {"measurement": "remaining activity at 1 µM", "setting": "HIPK3", "result": 125, "unit": "%"}, {"measurement": "remaining activity at 1 µM", "setting": "CDK2/cyclin O", "result": 56.8, "unit": "%"}, {"measurement": "remaining activity at 1 µM", "setting": "IKKb/IKBKB", "result": 78.1, "unit": "%"}, {"measurement": "remaining activity at 1 µM", "setting": "PKAcb", "result": 89.6, "unit": "%"}, {"measurement": "remaining activity at 1 µM", "setting": "JAK1", "result": 93.3, "unit": "%"}]}]}
